Data published in US11634450B2, “DOT1L degraders and uses thereof” (DANA-FARBER CANCER INSTITUTE, INC., priority 2018, dated 2023).
Each block holds one compound with its values, some of them ahead of it.

How the values were obtained:
[1] = molecular target: T1, DOT1L (Mus musculus, UniProt Q6XZL8); experiment: Degradation in mouse MLL-AF9 PA cell line by immunoblot; format: cell-based; details: FIGS. 10A-10B, mouse MLL-AF9 PA cells, up to 10 μM, 24, 48 and 72 hours
T1 construct: endogenous in cells; host or cells: mouse MLL-AF9 PA leukemia cells
T1 sequence (Q6XZL8 1-1540): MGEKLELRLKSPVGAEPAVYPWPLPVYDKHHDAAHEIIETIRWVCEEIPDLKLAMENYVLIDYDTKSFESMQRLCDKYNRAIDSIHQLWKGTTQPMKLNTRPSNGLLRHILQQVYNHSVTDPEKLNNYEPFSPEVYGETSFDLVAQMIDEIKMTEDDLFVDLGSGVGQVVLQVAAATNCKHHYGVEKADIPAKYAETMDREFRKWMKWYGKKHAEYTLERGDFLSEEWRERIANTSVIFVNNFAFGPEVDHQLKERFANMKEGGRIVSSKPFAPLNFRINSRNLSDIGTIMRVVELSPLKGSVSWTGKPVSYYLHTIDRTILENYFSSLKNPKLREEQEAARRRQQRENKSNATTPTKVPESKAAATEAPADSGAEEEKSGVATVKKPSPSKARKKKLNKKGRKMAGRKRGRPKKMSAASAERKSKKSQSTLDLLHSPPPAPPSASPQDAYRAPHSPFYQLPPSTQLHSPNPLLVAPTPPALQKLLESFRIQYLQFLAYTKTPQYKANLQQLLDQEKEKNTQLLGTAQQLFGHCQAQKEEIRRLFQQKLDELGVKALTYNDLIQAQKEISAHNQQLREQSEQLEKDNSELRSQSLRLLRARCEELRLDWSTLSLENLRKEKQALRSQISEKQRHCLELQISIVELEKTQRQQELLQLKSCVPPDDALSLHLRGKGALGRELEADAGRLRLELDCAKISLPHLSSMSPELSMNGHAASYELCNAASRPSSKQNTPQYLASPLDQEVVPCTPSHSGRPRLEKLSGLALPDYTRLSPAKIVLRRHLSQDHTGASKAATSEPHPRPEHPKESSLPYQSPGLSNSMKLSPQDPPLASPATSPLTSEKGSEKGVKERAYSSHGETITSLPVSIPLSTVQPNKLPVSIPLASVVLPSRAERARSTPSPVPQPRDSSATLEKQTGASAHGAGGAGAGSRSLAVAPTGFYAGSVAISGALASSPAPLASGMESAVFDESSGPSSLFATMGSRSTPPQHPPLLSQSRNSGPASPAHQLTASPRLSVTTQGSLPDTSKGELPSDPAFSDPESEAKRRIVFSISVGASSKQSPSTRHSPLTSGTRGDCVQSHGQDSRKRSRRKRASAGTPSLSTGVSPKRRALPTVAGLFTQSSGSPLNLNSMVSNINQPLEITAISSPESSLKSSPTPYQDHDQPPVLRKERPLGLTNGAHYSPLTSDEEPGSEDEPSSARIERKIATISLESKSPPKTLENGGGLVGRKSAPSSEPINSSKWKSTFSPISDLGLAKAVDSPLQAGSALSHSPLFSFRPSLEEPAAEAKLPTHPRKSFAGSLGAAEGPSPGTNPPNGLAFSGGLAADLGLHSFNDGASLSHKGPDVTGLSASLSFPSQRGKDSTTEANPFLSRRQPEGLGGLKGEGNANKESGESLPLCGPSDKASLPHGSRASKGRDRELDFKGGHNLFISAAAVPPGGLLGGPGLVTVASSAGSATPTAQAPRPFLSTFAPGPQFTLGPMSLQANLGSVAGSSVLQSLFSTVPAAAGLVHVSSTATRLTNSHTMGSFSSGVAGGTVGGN
Description: FIGS. 10A-10B show mouse MLL-AF9 PA (Mixed-lineage leukemia (MLL)-AF9 leukemia) cells treated with DOT1L-1 at the indicated concentrations for the indicated amount of time. The cells were immunoblotted with DOT1L (D402T), actin, and H3K79me2.
Mouse MLL-AF9 PA (Mixed-lineage leukemia (MLL)-AF9 leukemia) cells were treated with DOT1L-1 at 0 μM, 0.3 μM, 1 μM, 3.3 μM, and 10 μM for 24 hours, 48 hours, and 72 hours. Cell lysates were loaded on SDS-PAGE, then immunoblotted with DOT1L (D402T), actin, H3K79me2, and total H3. A second treatment was performed with DOT1L-1 concentrations of 0 μM, 0.01 μM, 0.1 μM, 0.3 μM, 1 μM, 3.3 μM, and 10 μM, at 24 hours and 48 hours.

[2] = molecular target: T2, DOT1L (Homo sapiens, UniProt Q8TEK3); experiment: Degradation in Molm13 PA cell line by immunoblot; format: cell-based; set-up: endogenous in cells; details: FIGS. 9A-9B, 0.3 μM to 10 μM, 24, 48 and 72 hours
T2 sequence (Q8TEK3 whole entry): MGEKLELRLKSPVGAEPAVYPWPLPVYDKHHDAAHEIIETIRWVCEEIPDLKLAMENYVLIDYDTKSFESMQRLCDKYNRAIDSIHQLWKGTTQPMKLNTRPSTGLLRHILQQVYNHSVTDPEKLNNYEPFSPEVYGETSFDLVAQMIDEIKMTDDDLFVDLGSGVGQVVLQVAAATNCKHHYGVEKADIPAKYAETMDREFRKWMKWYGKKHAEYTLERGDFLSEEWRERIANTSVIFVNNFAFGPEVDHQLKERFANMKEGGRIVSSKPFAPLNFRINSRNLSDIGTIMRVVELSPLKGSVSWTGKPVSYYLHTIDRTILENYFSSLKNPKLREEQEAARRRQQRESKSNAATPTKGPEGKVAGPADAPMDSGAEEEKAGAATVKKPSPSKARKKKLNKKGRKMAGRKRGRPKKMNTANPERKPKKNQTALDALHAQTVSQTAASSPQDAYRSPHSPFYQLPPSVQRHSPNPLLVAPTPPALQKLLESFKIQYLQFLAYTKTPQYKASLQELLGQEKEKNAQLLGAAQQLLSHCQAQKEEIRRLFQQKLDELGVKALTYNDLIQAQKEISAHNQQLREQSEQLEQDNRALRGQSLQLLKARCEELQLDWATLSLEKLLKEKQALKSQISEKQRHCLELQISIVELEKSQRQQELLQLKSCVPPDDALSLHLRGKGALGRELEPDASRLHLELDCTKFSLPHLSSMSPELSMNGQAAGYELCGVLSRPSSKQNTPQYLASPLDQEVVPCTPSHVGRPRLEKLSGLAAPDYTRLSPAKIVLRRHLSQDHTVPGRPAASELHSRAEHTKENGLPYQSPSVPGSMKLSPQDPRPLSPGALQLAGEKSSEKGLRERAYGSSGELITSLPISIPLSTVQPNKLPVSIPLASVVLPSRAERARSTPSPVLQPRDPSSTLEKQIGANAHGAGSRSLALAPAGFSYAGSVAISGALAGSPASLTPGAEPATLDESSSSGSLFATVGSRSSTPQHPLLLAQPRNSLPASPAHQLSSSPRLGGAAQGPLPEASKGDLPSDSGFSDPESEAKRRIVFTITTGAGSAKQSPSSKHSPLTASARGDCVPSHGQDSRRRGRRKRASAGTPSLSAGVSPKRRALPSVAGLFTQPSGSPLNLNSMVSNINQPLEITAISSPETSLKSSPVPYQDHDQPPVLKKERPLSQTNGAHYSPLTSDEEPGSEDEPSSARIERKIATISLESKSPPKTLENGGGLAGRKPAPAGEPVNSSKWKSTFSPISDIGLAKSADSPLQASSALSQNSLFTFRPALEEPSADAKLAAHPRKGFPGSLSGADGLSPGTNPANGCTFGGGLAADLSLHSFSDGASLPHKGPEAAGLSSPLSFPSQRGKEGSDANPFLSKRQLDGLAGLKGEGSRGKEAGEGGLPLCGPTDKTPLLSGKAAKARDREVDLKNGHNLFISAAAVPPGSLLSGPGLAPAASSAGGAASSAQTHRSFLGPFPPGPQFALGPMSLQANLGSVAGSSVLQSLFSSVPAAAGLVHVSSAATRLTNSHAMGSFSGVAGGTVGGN
Description: FIGS. 9A-9B show acute myeloid leukemia cells (Molm13 PA) treated with DOT1L-1 at the indicated concentrations for the indicated amount of time. The cells were immunoblotted with DOT1L (D402T), actin, and H3K79me2.
The cells were immunoblotted with DOT1L (D402T), actin, and H3K79me2.
Molm13PA (acute myeloid leukemia) cells were treated with dDOT1L-1 at 0 μM, 0.3 μM, 1 μM, 3.3 μM, and 10 μM for 24 hours and 48 hours. Cell lysates were loaded on SDS-PAGE, then immunoblotted with DOT1L (D402T), actin, H3K79me2, total H3. Repeat treatment was performed at 24 hours, 48 hours and 72 hours at the same concentrations of dDOT1L-1. […] (see FIGS. 9A-9B).
Molm13PA (acute myeloid leukemia) cells were treated with DOT1L-4 at 0 μM, 0.3 μM, 1 μM, 3.3 μM, and 10 μM for 24 hours, 48 hours, and 72 hours. Cell lysates were loaded on SDS-PAGE, then immunoblotted with DOT1L (D402T), actin, H3K79me2, total H3.

[3] = molecular target: CRBN with DOT1L (Homo sapiens, UniProt Q8TEK3+Q96SW2); experiment: Biochemical dimerization assay of CRBN with DOT1L induced by the degraders; details: FIG. 20, biochemical assay setting
CRBN with DOT1L, sequence (Q8TEK3 whole entry): as above
CRBN with DOT1L, sequence (Q96SW2 whole entry): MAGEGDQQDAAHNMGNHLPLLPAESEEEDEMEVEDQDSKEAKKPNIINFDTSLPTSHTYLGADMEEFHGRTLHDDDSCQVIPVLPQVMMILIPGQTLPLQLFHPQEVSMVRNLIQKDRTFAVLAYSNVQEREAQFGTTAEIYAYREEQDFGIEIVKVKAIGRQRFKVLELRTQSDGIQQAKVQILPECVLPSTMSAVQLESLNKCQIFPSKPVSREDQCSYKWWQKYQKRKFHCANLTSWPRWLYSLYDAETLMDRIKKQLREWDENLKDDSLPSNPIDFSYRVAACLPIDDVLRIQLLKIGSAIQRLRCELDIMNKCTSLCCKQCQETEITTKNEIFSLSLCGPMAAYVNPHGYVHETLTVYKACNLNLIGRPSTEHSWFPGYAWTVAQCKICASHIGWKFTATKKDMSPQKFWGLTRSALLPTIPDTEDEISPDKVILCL
From the text: This new assay checks if the exemplary compounds can dimerize CRBN and DOT1L in a biochemical assay setting.
A biochemical assay was completed to determine the dimerization of CRBN with DOT1L induced by the degraders. This assay checks if the exemplary compounds can dimerize CRBN and DOT1L in a biochemical assay setting.

[4] = molecular target: T2, DOT1L; experiment: DOT1L degradation in EOL1 cells by immunoblot; format: cell-based; set-up: endogenous in cells; host or cells: EOL1; details: for DOT1L degradation: immunoblot
Description: With JQ-DD6, the degradation happened at 16 hours and maximum degradation occurs at 24 hours.
(§1) EOL1 (acute myeloid (eosinophilic) leukemia cell line) cells were treated with exemplary DOT1L degrader compounds JQ-DD6, JQ-DD7, and JQ-DD8 at 0.5 μM, 1 μM, 3 μM, 5 μM, and 10 μM for 24 hours. Cell lysates were loaded on SDS-PAGE, then immunoblotted with DOT1L, Myc, H3K79me2, and actin. (see FIG. 21).
EOL1 cells were treated with exemplary DOT1L degrader compounds JQ-DD2, JQ-DD4, and JQ-DD6, JQ-DD7, and JQ-DD8 at 1 μM and […] for 2, 4, 8, 16, and 24 hours. Cell lysates were immunoblotted with DOT1L, Myc, H3K79me2, and actin at the indicated concentrations for the indicated times. (see FIG. 23).
(§2) EOL1 cells were treated with exemplary DOT1L degrader compounds JQ-DD6, JQ-DD7, and JQ-DD8 at 1 μM and […] for 24 and 48 hours. Cell lysates were immunoblotted with DOT1L, Myc, H3K79me2, and actin at the indicated concentrations for the indicated times. (see FIG. 24).

[5] = molecular target: T3, DOT1L tagged GFP and mcherry (Homo sapiens, UniProt Q8TEK3+Q96SW2); experiment: DOT1L degradation eGFP-mCherry reporting cell line assay; format: cell-based; details: FIG. 26, eGFP-mCherry reporting cell line, 24 hour treatment
T3 construct: eGFP; mCherry; expressed in transfected cells
T3 sequence (Q8TEK3 whole entry): as the sequence (Q8TEK3 whole entry) above
T3 sequence (Q96SW2 whole entry): as the sequence (Q96SW2 whole entry) above
T3 sequence (Q16531 whole entry partner): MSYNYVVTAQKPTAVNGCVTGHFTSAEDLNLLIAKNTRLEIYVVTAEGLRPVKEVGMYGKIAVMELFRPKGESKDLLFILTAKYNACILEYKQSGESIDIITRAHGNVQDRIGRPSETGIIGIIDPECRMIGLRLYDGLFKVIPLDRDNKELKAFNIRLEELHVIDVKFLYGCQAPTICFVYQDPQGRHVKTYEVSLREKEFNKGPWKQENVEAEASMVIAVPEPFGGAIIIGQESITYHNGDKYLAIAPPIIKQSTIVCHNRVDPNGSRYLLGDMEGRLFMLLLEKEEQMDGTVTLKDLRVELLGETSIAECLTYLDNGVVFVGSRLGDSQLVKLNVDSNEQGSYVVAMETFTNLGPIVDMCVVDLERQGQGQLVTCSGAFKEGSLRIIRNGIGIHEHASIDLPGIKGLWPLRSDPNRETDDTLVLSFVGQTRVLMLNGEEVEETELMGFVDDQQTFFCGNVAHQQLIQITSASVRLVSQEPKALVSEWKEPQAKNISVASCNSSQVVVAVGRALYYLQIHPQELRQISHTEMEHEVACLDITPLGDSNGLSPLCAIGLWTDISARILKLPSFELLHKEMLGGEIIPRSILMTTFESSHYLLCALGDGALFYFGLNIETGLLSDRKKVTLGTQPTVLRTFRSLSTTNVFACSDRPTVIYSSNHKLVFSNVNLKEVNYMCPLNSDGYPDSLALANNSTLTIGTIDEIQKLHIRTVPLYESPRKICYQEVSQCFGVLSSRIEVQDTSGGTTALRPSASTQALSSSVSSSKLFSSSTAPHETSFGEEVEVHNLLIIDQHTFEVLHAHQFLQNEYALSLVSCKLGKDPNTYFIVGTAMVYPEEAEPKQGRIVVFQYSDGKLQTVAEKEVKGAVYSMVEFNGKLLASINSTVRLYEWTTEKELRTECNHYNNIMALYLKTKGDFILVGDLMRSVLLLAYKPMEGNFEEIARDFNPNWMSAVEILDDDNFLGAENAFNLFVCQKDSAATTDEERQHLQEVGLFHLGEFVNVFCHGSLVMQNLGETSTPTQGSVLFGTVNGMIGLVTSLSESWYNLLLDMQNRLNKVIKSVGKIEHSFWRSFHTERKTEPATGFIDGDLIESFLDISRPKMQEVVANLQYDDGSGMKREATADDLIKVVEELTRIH
Description: This can directly report the targeted protein degradation. (See Sievers et al., Science, 2018).
The tested compounds include exemplary DOT1L degrader compounds JQ-DD2, JQ-DD3, JQ-DD4, JQ-DD5, JQ-DD6, JQ-DD7, JQ-DD8, negative control EPZ5676, and positive controls thalidomide and lenalidomide. The eGFP-mCherry reporting cell line can report the degradation well in 24 hours.
A new DOT1L degradation reporting cell line was developed with DOT1L tagged GFP and mcherry. This reporting cell line can directly report the targeted protein degradation. (See Sievers et al., Science, 2018). DOT1L degradation using eGFP-mCherry reporting cell line assays were conducted for exemplary DOT1L degrader compounds, and control compounds at different concentrations [M], measured in [M] per mP. The tested compounds include exemplary DOT1L degrader compounds JQ-DD2, JQ-DD3, JQ-DD4, JQ-DD5, JQ-DD6, JQ-DD7, JQ-DD8, and controls EPZ5676, Thalidomide, and Lenalidomide.

[6] = test system: EOL1 cells; experiment: Toxicity seen in EOL1 cells treated for immunoblot; format: cell-based; details: at 24 hours
Description: as §1, §2

[7] = FIG. 21, EOL1 cells, 0.5 μM, 1 μM, 3 μM, 5 μM, and 10 μM for 24 hours
[8] = FIG. 23, EOL1 cells, time course 2, 4, 8, 16, and 24 hours, 1 μM and 10M
[9] = FIG. 24, EOL1 cells, 1 μM and 10M for 24 and 48 hours

Compound: CC(C)N(C[C@H]1O[C@@H](n2cnc3c(NCCCCNC(=O)C=COCCOCCOCCNc4cccc5c4C(=O)N(C4CCC(=O)NC4=O)C5=O)ncnc32)[C@H](O)[C@@H]1O)C1CC(CCc2nc3cc(C(C)(C)C)ccc3[nH]2)C1 (stereo partly drawn) [DOT1L-1, N-(4-((9-((2R,3R,4S,5R)-5-(((3-(2-(5-(tert-butyl)-1H-benzo[d]imidazol-2-yl)ethyl)cyclobutyl)(isopropyl)amino)methyl)-3,4-dihydroxytetrahydrofuran-2-yl)-9H-purin-6-yl)amino)butyl)-3-(2-(2-(2-((2-(2,6-dioxopiperidin-3-yl)-1,3-dioxoisoindolin-4-yl)amino)ethoxy)ethoxy)ethoxy)propenamide]
degradation in blots (DOT1L, H3K79me2) [1]: degrades Mouse MLL-AF9 PA (Mixed-lineage leukemia (MLL)-AF9 leukemia) cells
effect on Molm13 PA cells in blots (DOT1L, H3K79me2) [2]: inhibits acute myeloid leukemia cells (Molm13 PA)

dimerization of CRBN with DOT1L (signal) [3]: strongest signal
DOT1L degradation [4, 7]: solid degradation
time at which DOT1L degradation happened [4, 8]: 16 h
time of maximum DOT1L degradation [4, 8]: 24 h
DOT1L degradation [4, 9]: shows degradation
activity in the cell ([4]; general remark in legend of FIG. 20, cell not named there): works very well in the cell
Compound: CC(C)N(C[C@H]1O[C@@H](n2cnc3c(NCCCCNC(=O)CCCCCCCCCCCNc4cccc5c4C(=O)N(C4CCC(=O)NC4=O)C5=O)ncnc32)C(O)C1O)C1CC(CCc2nc3cc(C(C)(C)C)ccc3[nH]2)C1 (stereo partly drawn) [JQ-DD6]
degradation of DOT1L (reporter signal) [5]: strongest signal for degradation of DOT1L

DOT1L degradation [4, 7]: show degradation
DOT1L degradation [4, 9]: shows degradation
Compound: CC(C)N(C[C@H]1O[C@@H](n2cnc3c(NCCCCNC(=O)CCCCCCCCCNc4cccc5c4C(=O)N(C4CCC(=O)NC4=O)C5=O)ncnc32)C(O)C1O)C1CC(CCc2nc3cc(C(C)(C)C)ccc3[nH]2)C1 (stereo partly drawn) [JQ-DD7]

DOT1L degradation [4, 7]: show degradation
DOT1L degradation [4, 9]: shows degradation
Compound: CC(C)N(CCCNC(=O)Nc1ccc(C(C)(C)C)cc1)C[C@H]1O[C@@H](n2cnc3c(NCCCCNC(=O)CCCCCCCCCCCNc4cccc5c4C(=O)N(C4CCC(=O)NC4=O)C5=O)ncnc32)C(O)C1O (stereo partly drawn) [JQ-DD8]
toxicity in EOL1 ([6]; FIG. 21, EOL1 cells): potential toxicity
toxicity in EOL1 ([6]; FIG. 24, EOL1 cells): potential toxicity
